The experiment has as its system aptamer 1 (DNA, aptamer) GGGAGCTCAGAATAAACGCTCAATACTATCGCGGAGACAGCGCGGGAGGCACCGGGGAGATCCGGGCCTCATGTCGAA
The experiment can be described thus: berberine fluorescence enhancement (ex 365 nm, em 530 nm). The conditions noted are these: 37 °C, 30 min; 50 μg/mL berberine, 0-280 nM aptamer, plateau at 200 nM; binding buffer not stated.

On to `COc1ccc2cc3[n+](cc2c1OC)CCc1cc2c(cc1-3)OCO2`, for which the binding entry is “yes”.

For the origin of these results see PMC9154759 (2022).
